Experiment: mn = molality of the nth substance listed, in mol/kg
Conditions: 100 kPa, Liquid, Vibrating tube method

N[C@@H](Cc1c[nH]cn1)C(=O)O [L-histidine] + O
mass density [kg/m3]
Conditions | 273.65 K | 274.15 K | 274.65 K | 275.15 K | 275.65 K | 276.15 K | 276.65 K | 277.15 K | 277.65 K | 278.15 K
m1 = 0.0078 | 1000.36 | 1000.39 | 1000.41 | 1000.43 | 1000.44 | 1000.45 | 1000.46 | 1000.45 | 1000.45 | 1000.44
m1 = 0.0176 | 1000.94 | 1000.96 | 1000.99 | 1001 | 1001.01 | 1001.02 | 1001.02 | 1001.02 | 1001.02 | 1001.01
m1 = 0.0269 | 1001.55 | 1001.57 | 1001.59 | 1001.61 | 1001.62 | 1001.62 | 1001.62 | 1001.62 | 1001.62 | 1001.61
m1 = 0.048 | 1002.8 | 1002.82 | 1002.83 | 1002.85 | 1002.86 | 1002.86 | 1002.86 | 1002.85 | 1002.85 | 1002.84
m1 = 0.0636 | 1003.83 | 1003.85 | 1003.87 | 1003.88 | 1003.88 | 1003.88 | 1003.88 | 1003.88 | 1003.87 | 1003.85
m1 = 0.0856 | 1005.09 | 1005.11 | 1005.12 | 1005.12 | 1005.13 | 1005.13 | 1005.12 | 1005.11 | 1005.1 | 1005.09
m1 = 0.0982 | 1005.86 | 1005.87 | 1005.88 | 1005.89 | 1005.89 | 1005.89 | 1005.88 | 1005.87 | 1005.86 | 1005.85
m1 = 0.115 | 1006.76 | 1006.77 | 1006.77 | 1006.78 | 1006.78 | 1006.78 | 1006.77 | 1006.76 | 1006.75 | 1006.73
m1 = 0.1268 | 1007.55 | 1007.57 | 1007.57 | 1007.57 | 1007.57 | 1007.57 | 1007.56 | 1007.54 | 1007.53 | 1007.51
m1 = 0.138 | 1008.24 | 1008.25 | 1008.25 | 1008.25 | 1008.25 | 1008.25 | 1008.23 | 1008.22 | 1008.2 | 1008.18
m1 = 0.1586 | 1009.57 | 1009.58 | 1009.58 | 1009.58 | 1009.58 | 1009.57 | 1009.55 | 1009.54 | 1009.52 | 1009.5
